Test results as given in EP0568635B1, “IMPROVED GLYPHOSATE FORMULATIONS” (MONSANTO COMPANY, priority 1991, dated 1992).

System: Johnsongrass
Test: Greenhouse bioassay test of herbicidal activity, pot-grown weeds sprayed with a track sprayer
Format: in vivo
Settings: mean of four rates (1/4, 1/2, 3/4 and 1 pound glyphosate/acre; 0.28, 0.56, 0.84 and 1.12 kg/ha), 4 weeks after treatment, 0.25 % ethoxylated amine surfactant in all spray solutions
Experimental: The results of the bioassay test of the Example 2 formulation are shown below. Roundup herbicide was used as a comparative of the prior art.
In all of the greenhouse bioassay tests provided in this specification, pot-grown weed species were sprayed with aqueous solutions of the glyphosate WSP formulations using a track sprayer calibrated to apply about 20 gallons/acre (187 liters/hectare) at about 30 psi ([…]).
WSP formulations were prepared without Witconate surfactant. The surfactant was tank mixed into the spray solutions for bioassays.

With `CC(C)N.O=C(O)CNCP(=O)(O)O` [Isopropylamine salt of glyphosate] the “% INHIBITION” value was 55.2%.
